In patent US9169254B2, “Spiroimidazolone derivative” (Chugai Seiyaku Kabushiki Kaisha, priority 2009, dated 2015):

The molecules below were run against T1, human PTH1 receptor (Homo sapiens, UniProt Q03431) (assay: In vitro cAMP signal activity in HKRK-B7 cells (LLC-PK1 cells overexpressing the human PTH1 receptor)). Settings: HKRK-B7 cells; compound at 1×10^−3 M; cAMP produced as percentage of that produced by hPTH(1-34) at 100 nM.
T1 sequence (Q03431 27-593): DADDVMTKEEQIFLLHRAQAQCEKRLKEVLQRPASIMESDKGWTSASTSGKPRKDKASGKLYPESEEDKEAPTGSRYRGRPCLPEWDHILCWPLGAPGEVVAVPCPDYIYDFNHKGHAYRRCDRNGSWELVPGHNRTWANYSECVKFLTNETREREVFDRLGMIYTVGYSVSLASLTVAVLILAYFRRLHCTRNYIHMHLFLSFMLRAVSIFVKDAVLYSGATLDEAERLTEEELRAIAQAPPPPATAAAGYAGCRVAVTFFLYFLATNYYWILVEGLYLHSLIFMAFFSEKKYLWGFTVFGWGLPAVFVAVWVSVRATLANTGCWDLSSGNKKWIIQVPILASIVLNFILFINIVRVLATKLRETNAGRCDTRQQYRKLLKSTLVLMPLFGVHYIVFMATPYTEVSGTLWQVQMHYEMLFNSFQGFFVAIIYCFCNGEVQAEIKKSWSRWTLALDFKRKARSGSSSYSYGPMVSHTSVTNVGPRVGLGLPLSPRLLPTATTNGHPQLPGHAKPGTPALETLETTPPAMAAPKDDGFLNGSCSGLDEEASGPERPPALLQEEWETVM
Format: cell-based

| SMILES | cAMP production activity (%) |
| --- | --- |
| Cc1cc(OC[C@H](O)CO)cc(C)c1/C=C/S(=O)(=O)N1CCC2(CC1)N=C(c1ccc(F)c(C(F)(F)F)c1)NC2=O [Compound 242, 8-{(E)-2-[4-((R)-2,3-Dihydroxy-propoxy)-2,6-dimethyl-phenyl]-ethenesulfonyl}-2-(4-fluoro-3-trifluoromethyl-phenyl)-1,3,8-triaza-spiro[4.5]dec-1-en-4-one] | 75 |
| Cc1cc(OC[C@H](O)CO)cc(C)c1/C=C/S(=O)(=O)N1CCC2(CC1)N=C(c1cccc(C(F)(F)F)c1F)NC2=O [Compound 243, 8-{(E)-2-[4-((R)-2,3-dihydroxy-propoxy)-2,6-dimethyl-phenyl]-ethenesulfonyl}-2-(2-fluoro-3-trifluoromethyl-phenyl)-1,3,8-triaza-spiro[4.5]dec-1-en-4-one] | 80 |
| Cc1cc(C(=O)N2CCC(O)CC2)cc(C)c1/C=C/S(=O)(=O)N1CCC2(CC1)N=C(c1cccc(C(F)(F)F)c1F)NC2=O [Compound 244, 2-(2-fluoro-3-trifluoromethyl-phenyl)-8-{(E)-2-[4-(4-hydroxy-piperidine-1-carbonyl)-2,6-dimethyl-phenyl]-ethenesulfonyl}-1,3,8-triaza-spiro[4.5]dec-1-en-4-one] | 83 |
| CC1(C)OC[C@H](Cn2ccc3c(/C=C/S(=O)(=O)N4CCC5(CC4)N=C(C4CCC(C(F)(F)F)CC4)NC5=O)cccc32)O1 (stereo partly drawn) [Compound 245, 8-{(E)-2-[1-((S)-2,2-dimethyl-[1,3]dioxolan-4-ylmethyl)-1H-indol-4-yl]-ethenesulfonyl}-2-(4-trifluoromethyl-cyclohexyl)-1,3,8-triaza-spiro[4.5]dec-1-en-4-one] | 34 |
| CC1(C)OCC(Cn2ccc3c(/C=C/S(=O)(=O)N4CCC5(CC4)N=C(C4CCOCC4)NC5=O)cccc32)O1 (stereo not shown) [Compound 246, 8-{(E)-2-[1-(2,2-dimethyl-[1,3]dioxolan-4-ylmethyl)-1H-indol-4-yl]-ethenesulfonyl}-2-(tetrahydro-pyran-4-yl)-1,3,8-triaza-spiro[4.5]dec-1-en-4-one] | 39 |
| Cc1cc(OCCC(O)CO)ccc1/C=C/S(=O)(=O)N1CCC2(CC1)N=C(c1cccc(C(F)(F)F)c1F)NC2=O (stereo not shown) [Compound 247, 8-{(E)-2-[4-(3,4-Dihydroxy-butoxy)-2-methyl-phenyl]-ethenesulfonyl}-2-(2-fluoro-3-trifluoromethyl-phenyl)-1,3,8-triaza-spiro[4.5]dec-1-en-4-one] | 81 |
| Cc1cc(C(=O)N2CCCC2)ccc1/C=C/S(=O)(=O)N1CCC2(CC1)N=C(c1cccc(C(F)(F)F)c1F)NC2=O [Compound 248, 2-(2-fluoro-3-trifluoromethyl-phenyl)-8-{(E)-2-[2-methyl-4-(pyrrolidine-1-carbonyl)-phenyl]-ethenesulfonyl}-1,3,8-triaza-spiro[4.5]dec-1-en-4-one] | 66 |
| O=C1NC(c2ccc(Cl)cc2Cl)=NC12CCN(S(=O)(=O)/C=C/c1cccc3c1ccn3C[C@H](O)CO)CC2 [Compound 249, 2-(2,4-dichloro-phenyl)-8-{(E)-2-[1-((S)-2,3-dihydroxy-propyl)-1H-indol-4-yl]-ethenesulfonyl}-1,3,8-triaza-spiro[4.5]dec-1-en-4-one] | 71 |
| O=C1NC(c2ccc(Cl)cc2)=NC12CCN(S(=O)(=O)/C=C/c1cccc3c1ccn3C[C@H](O)CO)CC2 [Compound 250, 2-(4-chloro-phenyl)-8-{(E)-2-[1-((S)-2,3-dihydroxy-propyl)-1H-indol-4-yl]-ethenesulfonyl}-1,3,8-triaza-spiro[4.5]dec-1-en-4-one] | 62 |
| O=C1NC(C2CCCCC2)=NC12CCN(S(=O)(=O)CC/C=C/c1cccc3[nH]ccc13)CC2 [Compound 251, 2-Cyclohexyl-8-[(E)-4-(1H-indol-4-yl)-but-3-ene-1-sulfonyl]-1,3,8-triaza-spiro[4.5]dec-1-en-4-one] | 28 |
| O=C1NC(C2CCCCC2)=NC12CCN(S(=O)(=O)CCC/C=C/c1cccc3[nH]ccc13)CC2 [Compound 252, 2-Cyclohexyl-8-[(E)-5-(1H-indol-4-yl)-pent-4-ene-1-sulfonyl]-1,3,8-triaza-spiro[4.5]dec-1-en-4-one] | 28 |
| O=C1NC(C2CCCCC2)=NC12CCN(S(=O)(=O)C/C=C/c1cccc3c1ccn3C[C@H](O)CO)CC2 [Compound 253, 2-Cyclohexyl-8-{(E)-3-[1-((S)-2,3-dihydroxy-propyl)-1H-indol-4-yl]-prop-2-ene-1-sulfonyl}-1,3,8-triaza-spiro[4.5]dec-1-en-4-one] | 54 |
| Cc1c(/C=C/S(=O)(=O)N2CCC3(CC2)N=C(c2cccc(OC(F)(F)F)c2)NC3=O)cccc1OCCC(O)CO (stereo not shown) [Compound 254, 8-{(E)-2-[3-(3,4-Dihydroxy-butoxy)-2-methyl-phenyl]-ethenesulfonyl}-2-(3-trifluoromethoxy-phenyl)-1,3,8-triaza-spiro[4.5]dec-1-en-4-one] | 97 |
| Cc1ccc(OCCC(O)CO)cc1/C=C/S(=O)(=O)N1CCC2(CC1)N=C(c1cccc(OC(F)(F)F)c1)NC2=O (stereo not shown) [Compound 255, 8-{(E)-2-[5-(3,4-dihydroxy-butoxy)-2-methyl-phenyl]-ethenesulfonyl}-2-(3-trifluoromethoxy-phenyl)-1,3,8-triaza-spiro[4.5]dec-1-en-4-one] | 64 |
| Cc1c(/C=C/S(=O)(=O)N2CCC3(CC2)N=C(c2cccc(OC(F)(F)F)c2)NC3=O)cccc1OCCO [Compound 256, 8-{(E)-2-[3-(2-Hydroxy-ethoxy)-2-methyl-phenyl]-ethenesulfonyl}-2-(3-trifluoromethoxy-phenyl)-1,3,8-triaza-spiro[4.5]dec-1-en-4-one] | 67 |
| CC(=O)N(CCO)c1ccc(C)c(/C=C/S(=O)(=O)N2CCC3(CC2)N=C(c2cccc(OC(F)(F)F)c2)NC3=O)c1 [Compound 257, N-(2-hydroxy-ethyl)-N-(4-methyl-3-{(E)-2-[4-oxo-2-(3-trifluoromethoxy-phenyl)-1,3,8-triaza-spiro[4.5]dec-1-ene-8-sulfonyl]-vinyl}-phenyl)-acetamide] | 42 |
| Cc1cc(N2C(=O)CC[C@@H]2CO)cc(C)c1/C=C/S(=O)(=O)N1CCC2(CC1)N=C(c1cccc(OC(F)(F)F)c1)NC2=O [Compound 258, 8-{(E)-2-[4-((R)-2-hydroxymethyl-5-oxo-pyrrolidin-1-yl)-2,6-dimethyl-phenyl]-ethenesulfonyl}-2-(3-trifluoromethoxy-phenyl)-1,3,8-triaza-spiro[4.5]dec-1-en-4-one] | 87 |
| CC(=O)N(CCO)c1ccc(/C=C/S(=O)(=O)N2CCC3(CC2)N=C(c2cccc(C(F)(F)F)c2F)NC3=O)c(C)c1 [Compound 259, N-(4-{(E)-2-[2-(2-Fluoro-3-trifluoromethyl-phenyl)-4-oxo-1,3,8-triaza-spiro[4.5]dec-1-ene-8-sulfonyl]-vinyl}-3-methyl-phenyl)-N-(2-hydroxy-ethyl)-acetamide] | 67 |
| O=C1NC(C2CCCCC2)=NC12CCN(S(=O)(=O)CCc1cccc3[nH]c(=O)oc13)CC2 [Compound 261, 2-Cyclohexyl-8-[2-(2-oxo-2,3-dihydro-benzoxazol-7-yl)-ethanesulfonyl]-1,3,8-triaza-spiro[4.5]dec-1-en-4-one] | 70 |
| O=C1NC(C2CCCCC2)=NC12CCN(S(=O)(=O)CCCCCc1cccc3[nH]ccc13)CC2 [Compound 262, 2-cyclohexyl-8-[5-(1H-indol-4-yl)-pentane-1-sulfonyl]-1,3,8-triaza-spiro[4.5]dec-1-en-4-one] | 26 |
| O=C1NC(C2CCCCC2)=NC12CCN(S(=O)(=O)CCCCc1cccc3[nH]ccc13)CC2 [Compound 263, 2-cyclohexyl-8-[4-(1H-indol-4-yl)-butane-1-sulfonyl]-1,3,8-triaza-spiro[4.5]dec-1-en-4-one] | 41 |
| CC(=O)N(C)c1cccc(CCS(=O)(=O)N2CCC3(CC2)N=C(c2cccc(OC(F)(F)F)c2)NC3=O)c1C [Compound 264, N-methyl-N-(2-methyl-3-{2-[4-oxo-2-(3-trifluoromethoxy-phenyl)-1,3,8-triaza-spiro[4.5]dec-1-ene-8-sulfonyl]-ethyl}-phenyl)-acetamide] | 69 |
| CC(=O)N(C)c1ccc(C)c(CCS(=O)(=O)N2CCC3(CC2)N=C(c2cccc(OC(F)(F)F)c2)NC3=O)c1 [Compound 265, N-methyl-N-(4-methyl-3-{2-[4-oxo-2-(3-trifluoromethoxy-phenyl)-1,3,8-triaza-spiro[4.5]dec-1-ene-8-sulfonyl]-ethyl}-phenyl)-acetamide] | 55 |
| Cc1c(CCS(=O)(=O)N2CCC3(CC2)N=C(c2cccc(OC(F)(F)F)c2)NC3=O)cccc1OCCC(O)CO (stereo not shown) [Compound 266, 8-{2-[3-(3,4-dihydroxy-butoxy)-2-methyl-phenyl]-ethanesulfonyl}-2-(3-trifluoromethoxy-phenyl)-1,3,8-triaza-spiro[4.5]dec-1-en-4-one] | 81 |
| Cc1ccc(OCCC(O)CO)cc1CCS(=O)(=O)N1CCC2(CC1)N=C(c1cccc(OC(F)(F)F)c1)NC2=O (stereo not shown) [Compound 267, 8-{2-[5-(3,4-dihydroxy-butoxy)-2-methyl-phenyl]-ethanesulfonyl}-2-(3-trifluoromethoxy-phenyl)-1,3,8-triaza-spiro[4.5]dec-1-en-4-one] | 42 |
